{
  "source": "patent US4263280A",
  "about": "“Synergistic mixtures” (priority 1978, dated 1981)",
  "key": {"[1]": {"conditions": "known β-lactamase inhibitors themselves; cited from earlier work"}, "[2]": {"system": "Pseudomonas aeruginosa 799A", "test": "in vitro MIC, chessboard microdilution, Pseudomonas aeruginosa 799A", "type": "cell-based", "experimental": "(§1) The combination substances A and B are diluted in DST broth OXOID in chessboard arrangement with the aid of microtitre system in 1:2 steps. All the concentrations of substance A are combined with all the concentrations of substance B and then inoculated with a standardised bacteria suspension (final concentration about 10^4 bacilli/ml). After incubation for 18 hours at 37° C., the inhibition of the bacterial growth is determined. The inhibiting concentrations are converted by the method of Kerry et al. (J. Antimicrob. […] By way of example, a number of the MIC values for the action of cefsulodin sodium, mecillinam, mezlocillin and gentamicin alone against a number of micro-organisms, as well as the MIC values for a number of mixtures in which synergism occurs, are reported in Table 1."}, "[3]": {"system": "Escherichia coli 12-44", "test": "in vitro MIC, chessboard microdilution, Escherichia coli 12-44", "type": "cell-based", "experimental": "as §1"}, "[4]": {"system": "Kiebsiella pneumoniae 1132", "test": "in vitro MIC, chessboard microdilution, Klebsiella pneumoniae 1132", "type": "cell-based", "experimental": "as §1"}, "[5]": {"system": "Klebsiella pneumoniae 1136", "test": "in vitro MIC, chessboard microdilution, Klebsiella pneumoniae 1136", "type": "cell-based", "experimental": "as §1"}, "[6]": {"system": "Proteus rettgeri 1121", "test": "in vitro MIC, chessboard microdilution, Proteus rettgeri 1121", "type": "cell-based", "experimental": "as §1"}, "[7]": {"system": "Escherichia coli 205", "test": "systemic infection in mice, survival, Escherichia coli 205", "type": "in vivo", "conditions": "fifth day", "experimental": "(§2) The combination substances A and B are diluted in 1:3 to 1:3.3 steps such that the average concentration contains the respective amount of substance A and substance B corresponding to the ED50.\n(§3) Female MF 2 mice weighing 18 to 22 g are divided at random into groups (n=20) and infected intraperitoneally with a standardised bacteria suspension which, according to strain, represents 5 to >20 LD50.\n(§4) Immediately after the infection, and 3 hours later, the mice are treated in groups subcutaneously with dilutions of substances A and B as well as with combinations thereof. These combinations are prepared shortly before administration by mixing each dilution of substance A with each dilution of substance B. The survival rates are determined on the fifth day after the infection. The survival rates of mice which are determined with each of substances A and B alone are compared with those obtained with the combinations of these substances. A combination which has protected more animals from death than would be expected from the independent action of the substances, is designated as having synergistic action.\n(§5) The survival rates, expressed as percentages of surviving animals, found in infections with a number of pure micro-organisms and in polyinfections is reported in Table 2 for cefsulodin sodium, mecillinam, mezlocillin, gentamicin and CGP 14 221/E, as well as for corresponding mixtures."}, "[8]": {"system": "Klebsiella pneumoniae 329", "test": "systemic infection in mice, survival, Klebsiella pneumoniae 329", "type": "in vivo", "conditions": "fifth day", "experimental": "as §2, §3, §4, §5"}, "[9]": {"system": "Escherichia coli 205 RTEM^+", "test": "systemic infection in mice, survival, Escherichia coli 205 RTEM+", "type": "in vivo", "conditions": "1.2 mg/kg s.c., fifth day", "experimental": "as §2, §3, §4, §5"}, "[10]": {"system": "Klebsiella pneumoniae 327", "test": "systemic infection in mice, survival, Klebsiella pneumoniae 327", "type": "in vivo", "conditions": "fifth day", "experimental": "as §2, §3, §4, §5"}, "[11]": {"system": "Klebsiella pneumoniae 329 + Escherichia coli 205", "test": "systemic polyinfection in mice, survival, Klebsiella pneumoniae 329 + Escherichia coli 205", "type": "in vivo", "conditions": "20 mg/kg s.c., fifth day", "experimental": "as §2, §3, §4, §5"}, "[12]": {"system": "Pseudomonas aeruginosa G 121", "test": "in vitro MIC, chessboard microdilution, Pseudomonas aeruginosa G 121", "type": "cell-based", "experimental": "as §1"}, "[13]": {"system": "Staphylococcus aureus", "test": "in vitro MIC, chessboard microdilution, Staphylococcus aureus", "type": "cell-based", "experimental": "as §1"}, "[14]": {"system": "Klebsiella pneumoniae 1", "test": "in vitro MIC, chessboard microdilution, Klebsiella pneumoniae 1", "type": "cell-based", "experimental": "as §1"}, "[15]": {"system": "Proteus mirabilis 1077", "test": "in vitro MIC, chessboard microdilution, Proteus mirabilis 1077", "type": "cell-based", "experimental": "as §1"}, "[16]": {"system": "Pseudomonas aeruginosa 410", "test": "in vitro MIC, chessboard microdilution, Pseudomonas aeruginosa 410", "type": "cell-based", "experimental": "as §1"}, "[17]": {"system": "Pseudomonas aeruginosa 1140", "test": "in vitro MIC, chessboard microdilution, Pseudomonas aeruginosa 1140", "type": "cell-based", "experimental": "as §1"}, "[18]": {"system": "Escherichia coli 576", "test": "in vitro MIC, chessboard microdilution, Escherichia coli 576", "type": "cell-based", "experimental": "as §1"}, "[19]": {"system": "Pseudomonas aeruginosa + Escherichia coli", "test": "experimental pyelonephritis (polyinfection) in mice, Pseudomonas aeruginosa + Escherichia coli", "type": "in vivo", "conditions": "percentage of animals, 1 mg/kg s.c.", "experimental": "(§6) Mice are treated intravenously with 10 mg/kg of carrageenin. Seven days later they are infected with a standardised suspension of bacteria. […] Two days after the last treatment, the mice are sacrificed, dissected and examined for the number of germs in the kidneys."}, "[20]": {"system": "Pseudomonas aeruginosa + Klebsiella pneumoniae", "test": "experimental pyelonephritis (polyinfection) in mice, Pseudomonas aeruginosa + Klebsiella pneumoniae", "type": "in vivo", "conditions": "percentage of animals", "experimental": "as §6"}, "[21]": {"conditions": "in combination with Cefsulodin-Na 12.5 mcg/ml"}},
  "note": "Where a name gives a salt, the structure may show the parent alone.",
  "data": [
    {"compound": "O=C(O)[C@H]1/C(=C/CO)O[C@@H]2CC(=O)N21", "note": "[clavulanic acid]", "values": [
      {"measurement": "antibiotic action", "setting": "[1]", "result": "insignificant antibiotic action"}
    ]},
    {"compound": "CC1(C)S[C@@H]2[C@H](/N=C/N3CCCCCC3)C(=O)N2[C@H]1C(=O)O", "note": "[Mecillinam]", "values": [
      {"measurement": "MIC", "setting": "[2]; Pseudomonas aeruginosa, 799A, alone, 18 hours, 37° C., read-out: MIC, antibiotic alone", "result": 1000, "unit": "µg/mL"},
      {"measurement": "MIC, antibiotic B in combination with A", "setting": "[2]; in combination with Cefsulodin-Na 0.25 mcg/ml", "result": 32, "unit": "µg/mL"},
      {"measurement": "MIC", "setting": "[3]; Escherichia coli, 1244, alone, 18 hours, 37° C., read-out: MIC, antibiotic alone", "result": 2, "unit": "µg/mL"},
      {"measurement": "MIC, antibiotic B in combination with A", "setting": "[3]; [21]", "result": 0.12, "unit": "µg/mL"},
      {"measurement": "MIC", "setting": "[4]; Klebsiella pneumoniae, 1132, alone, 18 hours, 37° C., read-out: MIC, antibiotic alone", "result": 1, "unit": "µg/mL"},
      {"measurement": "MIC, antibiotic B in combination with A", "setting": "[4]; in combination with Cefsulodin-Na 6.2 mcg/ml", "result": 0.25, "unit": "µg/mL"},
      {"measurement": "MIC", "setting": "[5]; Klebsiella pneumoniae, 1136, alone, 18 hours, 37° C., read-out: MIC, antibiotic alone", "result": 1, "unit": "µg/mL"},
      {"measurement": "MIC, antibiotic B in combination with A", "setting": "[5]; [21]", "result": 0.25, "unit": "µg/mL"},
      {"measurement": "MIC", "setting": "[6]; Providencia rettgeri, 1121, alone, 18 hours, 37° C., read-out: MIC, antibiotic alone", "result": 3.2, "unit": "µg/mL"},
      {"measurement": "MIC, antibiotic B in combination with A", "setting": "[6]; in combination with Cefsulodin-Na 0.4 mcg/ml", "result": 1.6, "unit": "µg/mL"},
      {"measurement": "surviving animals, antibiotic alone", "setting": "[7]; 1 mg/kg s.c.", "result": 0, "unit": "%"},
      {"measurement": "surviving animals, antibiotic alone", "setting": "[7]; 2 mg/kg s.c.", "result": 0, "unit": "%"},
      {"measurement": "surviving animals, antibiotic alone", "setting": "[8]; 300 mg/kg s.c.", "result": 0, "unit": "%"}
    ]},
    {"compound": "CN(C)CCn1nnnc1SCC1=C(C(=O)O)N2C(=O)[C@@H](NC(=O)Cc3csc(N)n3)[C@H]2SC1", "note": "[CGP 14221/E, 7[2(2-lmino-1,3-thiazolin-4-yl)acetamido3-[1(3-dimethylamino)-tetrazol-5-ylthio-methyl3-cephem-4-carboxylic acid hydrochloride]", "values": [
      {"measurement": "surviving animals, antibiotic alone", "setting": "[7]; 0.62 mg/kg s.c.", "result": 0, "unit": "%"},
      {"measurement": "surviving animals, antibiotic alone", "setting": "[7]; 2.5 mg/kg s.c.", "result": 0, "unit": "%"},
      {"measurement": "surviving animals, antibiotic alone", "setting": "[9]", "result": 10, "unit": "%"},
      {"measurement": "surviving animals, antibiotic alone", "setting": "[10]; 20 mg/kg s.c.", "result": 0, "unit": "%"},
      {"measurement": "surviving animals, antibiotic alone", "setting": "[10]; 40 mg/kg s.c.", "result": 0, "unit": "%"},
      {"measurement": "surviving animals, antibiotic alone", "setting": "[11]", "result": 0, "unit": "%"}
    ]},
    {"compound": "CC1(C)S[C@@H]2[C@H](NC(=O)[C@H](NC(=O)N3CCN(S(C)(=O)=O)C3=O)c3ccccc3)C(=O)N2[C@H]1C(=O)O", "note": "[Mezlocillin]", "values": [
      {"measurement": "MIC", "setting": "[12]; Pseudomonas aeruginosa, G121, alone, 18 hours, 37° C., read-out: MIC, antibiotic alone", "result": 25, "unit": "µg/mL"},
      {"measurement": "MIC, antibiotic B in combination with A", "setting": "[12]; in combination with Cefsulodin-Na 0.04 mcg/ml", "result": 12.5, "unit": "µg/mL"},
      {"measurement": "MIC", "setting": "[13]; Staphylococcus aureus, alone, 18 hours, 37° C., read-out: MIC, antibiotic alone", "result": 3.2, "unit": "µg/mL"},
      {"measurement": "MIC, antibiotic B in combination with A", "setting": "[13]; in combination with Cefsulodin-Na 0.2 mcg/ml", "result": 1.6, "unit": "µg/mL"},
      {"measurement": "MIC", "setting": "[14]; Klebsiella pneumoniae, 1, alone, 18 hours, 37° C., read-out: MIC, antibiotic alone", "result": 1.25, "unit": "µg/mL"},
      {"measurement": "MIC, antibiotic B in combination with A", "setting": "[14]; in combination with Cefsulodin-Na 25 mcg/ml", "result": 0.16, "unit": "µg/mL"},
      {"measurement": "MIC", "setting": "[15]; Proteus mirabilis, 1077, alone, 18 hours, 37° C., read-out: MIC, antibiotic alone", "result": 1, "unit": "µg/mL"},
      {"measurement": "MIC, antibiotic B in combination with A", "setting": "[15]; [21]", "result": 0.25, "unit": "µg/mL"},
      {"measurement": "surviving animals, antibiotic alone", "setting": "[7]; 50 mg/kg s.c.", "result": 0, "unit": "%"},
      {"measurement": "surviving animals, antibiotic alone", "setting": "[8]; 300 mg/kg s.c.", "result": 0, "unit": "%"}
    ]},
    {"compound": "CC1(C)[C@H](C(=O)O)N2C(=O)C[C@H]2S1(=O)=O", "note": "[penicillanic acid 4,4-dioxide]", "values": [
      {"measurement": "antibiotic action", "setting": "[1]", "result": "insignificant antibiotic action"}
    ]},
    {"compound": "Gentamicin", "values": [
      {"measurement": "MIC, antibiotic alone", "setting": "[6]; alone, 18 hours, 37° C.", "result": 1, "unit": "µg/mL"},
      {"measurement": "MIC, antibiotic B in combination with A", "setting": "[6]; in combination with Cefsulodin-Na 0.8 mcg/ml", "result": 0.5, "unit": "µg/mL"},
      {"measurement": "MIC, antibiotic alone", "setting": "[16]; alone, 18 hours, 37° C.", "result": 0.5, "unit": "µg/mL"},
      {"measurement": "MIC, antibiotic B in combination with A", "setting": "[16]; in combination with Cefsulodin-Na 0.06 mcg/ml", "result": 0.25, "unit": "µg/mL"},
      {"measurement": "MIC, antibiotic alone", "setting": "[17]; alone, 18 hours, 37° C.", "result": 32, "unit": "µg/mL"},
      {"measurement": "MIC, antibiotic B in combination with A", "setting": "[17]; in combination with Cefsulodin-Na 2 mcg/ml", "result": 4, "unit": "µg/mL"},
      {"measurement": "MIC, antibiotic alone", "setting": "[18]; alone, 18 hours, 37° C.", "result": 2, "unit": "µg/mL"},
      {"measurement": "MIC, antibiotic B in combination with A", "setting": "[18]; in combination with Cefsulodin-Na 32 mcg/ml", "result": 0.25, "unit": "µg/mL"},
      {"measurement": "surviving animals, antibiotic alone", "setting": "[8]; 0.2 mg/kg s.c.", "result": 30, "unit": "%"},
      {"measurement": "Clearance of the kidneys from both micro-organisms, antibiotic alone", "setting": "[19]", "result": 0, "unit": "%"},
      {"measurement": "Clearance of the kidneys from both micro-organisms, antibiotic alone", "setting": "[20]; 0.5 mg/kg s.c.", "result": 0, "unit": "%"},
      {"measurement": "Clearance of the kidneys from both micro-organisms, antibiotic alone", "setting": "[20]; 2.5 mg/kg s.c.", "result": 40, "unit": "%"}
    ]}
  ]
}
